Experimental data from patent publication EP1145714A1, “DRUGS” (Takeda Chemical Industries, Ltd., priority 1998, dated 2000).

How the values were obtained:
[1] = tested on: morphine-induced vomiting in dogs; assay: Morphine-induced vomiting in dogs, oral dosing; assay type: in vivo, beagle dogs; conditions: morphine 0.3 mg/kg subcutaneous
Procedure: Male 6 or 7 beagle dogs (8.8 to 14.5 kg) per one group were used. Morphine was subcutaneously administered at 0.3 mg/0. 03 ml/kg. 2.5 hours before morphine dosing, a small amount of a feed was given to the animals. 30 minutes thereafter, predetermined doses of the compound No. 3 were orally given. To a control animal group under no fasting was orally given a predetermined volume of 0.5 % methyl cellulose solution. A predetermined dose of ondansetron was orally given to the animals under fasting. To a control animal group of ondansetron under fasting was orally given a predetermined volume of physiological saline. The frequency of vomiting was counted up to 30 minutes after morphine dosing.
The compound No. 3 was suspended in 0.5 % methyl cellulose solution and was then orally administered at a ratio of 1 ml per 1 kg body weight. An injection of ondansetron at a concentration of 0.2 w/v % was orally dosed. Additionally, 0.5 % methyl cellulose solution was orally given at a ratio of 1 ml per 1 kg body weight, while physiological saline was orally given at a ratio of 0.5 ml per 1 kg body weight. The data relating to the frequency of vomiting, the time period (latency) until first vomiting and the time period from the occurrence of vomiting to the termination thereof were statistically analyzed by the Dunnett test or t test, with reference to the difference from the control group.
(§1) The retching suppression ratio and vomiting suppression ratio were calculated by the following formula. [Frequency of retching or vomiting in control] - [Frequency of retching or vomiting in animals dosed with compound No. 3] / [Frequency of retching or vomiting in control] x 100 (%) [formula]

[2] = tested on: acute vomiting induced by a central emetic agent loperamide in dogs; assay: Acute vomiting induced by loperamide in dogs; assay type: in vivo, beagle dogs; conditions: loperamide 1 mg/kg subcutaneous; for B: Frequency of vomiting (mean ± SD) / C: Time period until first vomiting (minute; mean ± SD) / D: Duration of vomiting (minute; mean ± SD) / Number of dogs with vomiting/number of tested dogs: 3 hours
Procedure: 3 male or female beagle dogs (7.7 to 12.7 kg) per one group were used. Loperamide was subcutaneously given at 1 mg/ml/kg. 2.5 hours prior to loperamide administration, a small amount of a feed was given to the animals. 30 minutes thereafter, predetermined doses of the compound No. 3 were orally given. Similarly, 0.5 % methyl cellulose solution was orally given to a control animal group under no fasting. Predetermined doses of naloxone and ondansetron were given intravenously and orally, respectively to the animals under fasting, 30 minutes prior to loperamide administration. The frequency of vomiting was counted, up to 3 hours after loperamide administration. The compound No. 3 was dissolved in 0.5 % methyl cellulose solution, for oral dosing at a ratio of 0.25 to 1 ml per 1 kg body weight. Additionally, naloxone was intravenously given in a solution at a concentration of 0.05 % w/v. An injection of ondansetron at a concentration of 0.2 % w/v was orally given. Still additionally, 0.5 % methyl cellulose solution was orally given at a ratio of 1 ml per 1 kg body weight. The data relating to the frequency of vomiting, the latency and the time period from the occurrence of vomiting to the termination thereof were statistically analyzed by the Dunnett test, with reference to the difference from the control group.
The vomiting suppression ratio was calculated by the following formula. [Frequency of retching or vomiting in control] - [Frequency of retching or vomiting in animals dosed with compound No. 3] / [frequency of retching or vomiting in control] x 100 (%) [formula]

[3] = tested on: vomiting induced by morphine in ferrets; assay: Vomiting induced by morphine in ferrets, oral dosing; assay type: in vivo; conditions: morphine 0.3 mg/kg subcutaneous; for A: Number of ferrets with retching/number of tested ferrets / B: Frequency of retching (mean ± SD) / C: Time period until first retching (minute; mean ± SD) / D: Duration of retching (minute; mean ± SD) / E: Number of ferrets with vomiting/number of tested ferrets / F: Frequency of vomiting (mean ± SD) / G: Time period until first vomiting (minute; mean ± SD) / H: Duration of vomiting (minute; mean ± SD): 30 minutes
Procedure: Male 6 or 7 ferrets (1.6 to 2.0 kg) per one group were used. Morphine was subcutaneously administered at0.3 mg/0.3 ml/kg. 2.5 hours before morphine dosing, a small amount of a feed was given to the animals. 30 minutes thereafter, predetermined doses of the compound No. 3 were orally given. To a control animal group under no fasting was orally given a predetermined volume of 0.5 % methyl cellulose solution. A predetermined volume of ondansetron was orally given to the animals under fasting. To a control animal group of ondansetron under fasting was orally given a predetermined volume of physiological saline. The frequency of vomiting was counted up to 30 minutes after morphine dosing. The compound No. 3 was suspended in 0.5 % methyl cellulose solution and was then orally dosed at a ratio of 1 ml per 1 kg body weight. An injection of ondansetron at a concentration of 0.2 w/v % was orally dosed. Additionally, 0.5 % methyl cellulose solution was orally given at a ratio of 1 ml per 1 kg body weight, while physiological saline was orally given at a ratio of 1 ml per 1 kg body weight. The data relating to the frequency of vomiting, the latency and the time period from the occurrence of vomiting to the termination thereof were statistically analyzed by the Dunnett test or t test, with reference to the difference from the control group.
as §1

[4] = 1 mg/kg p.o., under fasting, 30 minutes

## Cc1nccn1CC1CCc2c(c3ccccc3n2C)C1=O (stereo not shown) [Ondansetron, ondansetron, reference compound]
[1]; 1 mg/kg p.o.
  Acute vomiting suppression ratio: 48 % NS
  Effect on vomiting (in words): did not suppress
[1]; [4]
  B: Frequency of vomiting (mean ± SD): 1.7 ± 0.3
  C: Time period until first vomiting (minute; mean ± SD): 5.0 ± 1.0 min
  D: Duration of vomiting (minute; mean ± SD): 1.0 ± 0.6 min
  Number of dogs with vomiting/number of tested dogs: 3/3
[2]; 10 mg/kg p.o.
  Effect on vomiting (in words): did not suppress
  Vomiting suppression ratio: 3 % NS
  B: Frequency of vomiting (mean ± SD): 9.7 ± 2.7
  C: Time period until first vomiting (minute; mean ± SD): 0.50 ± 0.14 min
  D: Duration of vomiting (minute; mean ± SD): 1.30 ± 0.11 min
  Number of dogs with vomiting/number of tested dogs: 3/3
[3]; 3 mg/kg p.o.
  Acute vomiting suppression ratio: 0 % NS
  Effect on retching and vomiting (in words): did not suppress
  Pseudo-vomiting suppression ratio: 12 % NS
[3]; 3 mg/kg p.o., under fasting
  A: Number of ferrets with retching/number of tested ferrets: 5/6
  B: Frequency of retching (mean ± SD): 17.2 ± 6.4
  C: Time period until first retching (minute; mean ± SD): 8.8 ± 4.3 min
  D: Duration of retching (minute; mean ± SD): 5.0 ± 2.3 min
  E: Number of ferrets with vomiting/number of tested ferrets: 5/6
  F: Frequency of vomiting (mean ± SD): 2.3 ± 1.2
  G: Time period until first vomiting (minute; mean ± SD): 9.2 ± 4.2 min
  H: Duration of vomiting (minute; mean ± SD): 3.7 ± 2.6 min

## Cc1ccc(-c2c3n(c(=O)c4ncccc24)CC[C@@H](C)CN(Cc2cc(C(F)(F)F)cc(C(F)(F)F)c2)C3=O)cc1 [Cpd. No.3, (9R)-7-[3,5-bis(trifluoromethyl)benzyl]-6,7,8,9,10,11-hexahydro-9-methyl-5-(4-methylphenyl)-6,13-dioxo-13H-[1,4]diazocino[2,1-g][1,7]naphthylidine]
[1]; 0.1 mg/kg p.o.
  Acute vomiting suppression ratio: 55 % NS
[1]; 0.1 mg/kg p.o., 30 minutes
  B: Frequency of vomiting (mean ± 3D): 1.0 ± 0
  C: Time period until first vomiting (minute; mean ± SD): 8.7 ± 1.2 min
  D: Duration of vomiting (minute; mean ± SD): 0 min
  Number of dogs with vomiting/number of tested dogs: 3/3
[1]; 0.3 mg/kg p.o.
  Acute vomiting suppression ratio: 86 % NS
  Effect on vomiting (in words): significantly suppressed
[1]; 0.3 mg/kg p.o., 30 minutes
  B: Frequency of vomiting (mean ± 3D): 0.3 ± 0.3a
  C: Time period until first vomiting (minute; mean ± SD): 22.0 ± 8.0 a minute
  D: Duration of vomiting (minute; mean ± SD): 0 min
  Number of dogs with vomiting/number of tested dogs: 1/3
[1]; 1 mg/kg p.o.
  Acute vomiting suppression ratio: 100 % b
  Effect on vomiting (in words): completely suppressed
[1]; 1 mg/kg p.o., 30 minutes
  B: Frequency of vomiting (mean ± 3D): 0 b
  C: Time period until first vomiting (minute; mean ± SD): 30 b minute
  D: Duration of vomiting (minute; mean ± SD): 0 min
  Number of dogs with vomiting/number of tested dogs: 0/3
[2]; 0.01 mg/kg p.o.
  Vomiting suppression ratio: 20 % NS
  B: Frequency of vomiting (mean ± SD): 8.0 ± 2.5
  C: Time period until first vomiting (minute; mean ± SD): 0.74 ± 0.07 min
  D: Duration of vomiting (minute; mean ± SD): 1.24 ± 0.21 min
  Number of dogs with vomiting/number of tested dogs: 3/3
[2]; 0.03 mg/kg or higher p.o.
  Effect on vomiting (in words): significantly suppressed
[2]; 0.03 mg/kg p.o.
  Vomiting suppression ratio: 80 % a
  B: Frequency of vomiting (mean ± SD): 2.0 ± 0.6 a
  C: Time period until first vomiting (minute; mean ± SD): 1.08 ± 0.11 min
  D: Duration of vomiting (minute; mean ± SD): 0.44 ± 0.22 min
  Number of dogs with vomiting/number of tested dogs: 3/3
[2]; 0.1 mg/kg p.o.
  Vomiting suppression ratio: 73 % a
  B: Frequency of vomiting (mean ± SD): 2.7 ± 2.2 a
  C: Time period until first vomiting (minute; mean ± SD): 1.98 ± 0.55 a minute
  D: Duration of vomiting (minute; mean ± SD): 0.59 ± 0.59 min
  Number of dogs with vomiting/number of tested dogs: 2/3
[2]; 1 mg/kg p.o.
  Vomiting suppression ratio: 67 % a
  B: Frequency of vomiting (mean ± SD): 3.3 ± 1.2 a
  C: Time period until first vomiting (minute; mean ± SD): 1.25 ± 0.35 min
  D: Duration of vomiting (minute; mean ± SD): 0.68 ± 0.34 min
  Number of dogs with vomiting/number of tested dogs: 3/3
[2]; 3 mg/kg p.o.
  Vomiting suppression ratio: 70 % a
  B: Frequency of vomiting (mean ± SD): 3.0 ± 0.6 a
  C: Time period until first vomiting (minute; mean ± SD): 1.63 ± 0.34 min
  D: Duration of vomiting (minute; mean ± SD): 0.38 ± 0.13 a minute
  Number of dogs with vomiting/number of tested dogs: 3/3
[2]; 10 mg/kg p.o.
  Effect on vomiting (in words): completely suppressed
  Vomiting suppression ratio: 100 % b
  B: Frequency of vomiting (mean ± SD): 0 b
  C: Time period until first vomiting (minute; mean ± SD): 3 b minute
  D: Duration of vomiting (minute; mean ± SD): 0 b minute
  Number of dogs with vomiting/number of tested dogs: 0/3
[3]; 1 mg/kg p.o.
  Acute vomiting suppression ratio: 31 % NS
  Effect on retching and vomiting (in words): likely to be suppressed
  Pseudo-vomiting suppression ratio: 43 % NS
  A: Number of ferrets with retching/number of tested ferrets: 4/6
  B: Frequency of retching (mean ± SD): 18.3 ± 7.0
  C: Time period until first retching (minute; mean ± SD): 12.3 ± 5.6 min
  D: Duration of retching (minute; mean ± SD): 5.5 ± 1.9 min
  E: Number of ferrets with vomiting/number of tested ferrets: 4/6
  F: Frequency of vomiting (mean ± SD): 2.5 ± 1.0
  G: Time period until first vomiting (minute; mean ± SD): 13.3 ± 5.4 min
  H: Duration of vomiting (minute; mean ± SD): 3.8 ± 1.9 min
[3]; 3 mg/kg p.o.
  Acute vomiting suppression ratio: 86 % a
  Effect on retching and vomiting (in words): significantly suppressed
  Pseudo-vomiting suppression ratio: 79 % b
  A: Number of ferrets with retching/number of tested ferrets: 5/6
  B: Frequency of retching (mean ± SD): 6.8 ± 2.6 b
  C: Time period until first retching (minute; mean ± SD): 10.5 ± 3.9 min
  D: Duration of retching (minute; mean ± SD): 2.7 ± 1.7 min
  E: Number of ferrets with vomiting/number of tested ferrets: 1/6
  F: Frequency of vomiting (mean ± SD): 0.5 ± 0.5 a
  G: Time period until first vomiting (minute; mean ± SD): 25.8 ± 4.2 b minute
  H: Duration of vomiting (minute; mean ± SD): 1.5 ± 1.5 min
